We go through eight compounds from ChEMBL document CHEMBL1201862, “PubChem BioAssay data set” (2004).

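Briefly, cells in 96-well plates were exposed to five compound concentrations for 48 h, and endpoints were estimated by linear interpolation. At the GI50, growth is halved.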 Active and inactive are the calls of the source. No stated cut-off is given here; in the data, active = GI50 up to about 1.1 µM and inactive = higher.

Test systems include RXF 393; SNB-19; UACC-257; A549; NCI-H460; HCT-15; HOP-62; SW-620; CCRF-CEM; OVCAR-4; SK-OV-3; HCC 2998; SK-MEL-28; NCI-H23; UACC-62; IGROV-1; HOP-92; SK-MEL-5; TK-10; HL-60.
Assay in all cases: growth of human tumour cells (NCI), 48 h

Take `CN(C)/N=N/c1ccc([N+](=O)[O-])cc1C(N)=O`: the GI50 is > 100 µM (inactive) in the assay on RXF 393; > 66.5 µM (inactive) in the assay with SNB-19; > 100 µM (inactive) in the assay on UACC-257; > 100 µM (inactive) in the assay with A549; > 100 µM (inactive) with NCI-H460; > 100 µM in the assay on HCT-15. Further, the GI50 in the assay with HOP-62 is > 90.4 µM (inactive); in the assay on SW-620, > 100 µM (inactive); in the assay with CCRF-CEM, > 100 µM (inactive); in the assay on OVCAR-4, > 100 µM (inactive); with SK-OV-3, > 100 µM (inactive); with HCC 2998, > 100 µM (inactive). The GI50 in the assay on SK-MEL-28, with NCI-H23, in the assay with UACC-62, in the assay with IGROV-1, in the assay on HOP-92 and in the assay with SK-MEL-5 was > 100 µM (inactive) throughout.
For `CCN1C(=O)c2cc(OC)c(OC)cc2C(=O)C12OC(=O)c1cc3c(cc12)OCO3` (configuration not stated), the GI50 is 25.8 µM (inactive) in the assay on RXF 393; 39.5 µM (inactive) in the assay with SNB-19; > 100 µM (inactive) with UACC-257; 36.9 µM (inactive) with A549; 43.4 µM (inactive) in the assay on NCI-H460; > 100 µM in the assay on HCT-15. Further, the GI50 was 49.4 µM (inactive) in the assay on HOP-62; > 100 µM (inactive) with SW-620; 35.6 µM (inactive) in the assay with CCRF-CEM; 69.8 µM (inactive) with OVCAR-4; 54.7 µM (inactive) in the assay with HCC 2998; > 100 µM (inactive) with SK-MEL-28. Besides, the GI50 in the assay on NCI-H23 is > 100 µM (inactive); with TK-10, 75.7 µM (inactive); in the assay on UACC-62, 80.5 µM (inactive); in the assay with IGROV-1 it was 97.9 µM (inactive); with HOP-92, 55.3 µM (inactive); in the assay on SK-MEL-5 it was 85.9 µM (inactive).
Consider `CCOc1c(/N=N/c2ccccc2Cl)c(-c2ccccc2)nn1C(=S)S`, for which the GI50 is 39.9 µM (inactive) in the assay on RXF 393; > 100 µM (inactive) in the assay on SNB-19; 50.6 µM (inactive) with UACC-257; 33.2 µM (inactive) in the assay with A549; 45.2 µM (inactive) in the assay on NCI-H460; 23.1 µM in the assay with HCT-15. The GI50 in the assay on HOP-62 was > 100 µM (inactive); in the assay with SW-620, 46.6 µM (inactive); in the assay with HL-60 it was 33.6 µM (inactive); in the assay on OVCAR-4 it was 48.4 µM (inactive); with SK-OV-3 it was > 100 µM (inactive); in the assay with SK-MEL-28, > 100 µM (inactive). Besides, the GI50 with NCI-H23 is 30.3 µM (inactive); with TK-10, 77.6 µM (inactive); with UACC-62, 31.2 µM (inactive); in the assay on IGROV-1, 42.6 µM (inactive); in the assay with HOP-92 it was 54 µM (inactive); with SK-MEL-5 it was 21.2 µM (inactive).
Consider `CC(C)(Br)C1(O)CCCN1C(=O)c1ccccc1` (configuration not stated), for which the GI50 in the assay with RXF 393 was > 100 µM (inactive); in the assay on SNB-19 it was > 100 µM (inactive); with UACC-257 it was > 100 µM (inactive); in the assay with A549 it was > 100 µM (inactive); in the assay on NCI-H460, > 100 µM (inactive); in the assay on HCT-15 it was > 100 µM. The GI50 in the assay with SW-620, in the assay with HL-60, in the assay with CCRF-CEM, with SK-OV-3, in the assay on HCC 2998 and in the assay with SK-MEL-28 was > 100 µM (inactive) each time. Besides, the GI50 in the assay on NCI-H23, in the assay with TK-10, in the assay on UACC-62, with IGROV-1, in the assay on HOP-92 and with SK-MEL-5 was > 100 µM (inactive) in each case.
As for `O=C(O)/C(=C\c1ccncc1)c1cccc2ccccc12`, the GI50 in the assay on RXF 393 is > 100 µM (inactive); with SNB-19 it was > 100 µM (inactive); in the assay on UACC-257, 0.145 µM (active); in the assay on A549, 90.6 µM (inactive); with NCI-H460, > 100 µM (inactive); in the assay on HCT-15 it was > 100 µM. Also, the GI50 in the assay on HOP-62, in the assay on SW-620, in the assay with HL-60, in the assay on CCRF-CEM, in the assay with OVCAR-4 and with SK-OV-3 was > 100 µM (inactive) each time. Also, the GI50 with SK-MEL-28, in the assay on NCI-H23, with TK-10, in the assay with IGROV-1, in the assay with HOP-92 and with SK-MEL-5 was > 100 µM (inactive) each time.
Take `Brc1cccc(Nc2ncnc3sc4c(c23)CCC(Nc2cccc(Br)c2)C4)c1` (configuration not stated): the GI50 with RXF 393 is > 100 µM (inactive); in the assay on SNB-19, > 100 µM (inactive); with UACC-257, > 100 µM (inactive); in the assay on A549, > 100 µM (inactive); with NCI-H460, > 100 µM (inactive); in the assay with HCT-15 it was > 100 µM. For the same compound, the GI50 in the assay on HOP-62, in the assay on SW-620, in the assay on CCRF-CEM, with OVCAR-4, in the assay with SK-OV-3 and in the assay on HCC 2998 was > 100 µM (inactive) in each case. The GI50 with SK-MEL-28 is > 100 µM (inactive); with NCI-H23, > 100 µM (inactive); with TK-10, > 100 µM (inactive); with UACC-62 it was > 100 µM (inactive); in the assay with IGROV-1, 71.3 µM (inactive); with HOP-92 it was 26.2 µM (inactive). For the same compound, the GI50 with SK-MEL-5 is > 100 µM (inactive).
As for `Nc1ncc2c(n1)-c1ccccc1OC2N1CCCC1` (configuration not stated), the GI50 with RXF 393 was 94.8 µM (inactive); in the assay with SNB-19 it was > 100 µM (inactive); in the assay on UACC-257, > 100 µM (inactive); in the assay with A549, > 100 µM (inactive); in the assay with NCI-H460 it was > 100 µM (inactive); in the assay with HCT-15, > 100 µM. Also, the GI50 was > 100 µM (inactive) with HOP-62; > 100 µM (inactive) in the assay with SW-620; 1.9 µM (inactive) with HL-60; > 100 µM (inactive) in the assay on CCRF-CEM; > 100 µM (inactive) with OVCAR-4; > 100 µM (inactive) in the assay with SK-OV-3. Besides, the GI50 in the assay on SK-MEL-28 is > 100 µM (inactive); with NCI-H23 it was > 100 µM (inactive); in the assay on TK-10, > 100 µM (inactive); with UACC-62, > 100 µM (inactive); with IGROV-1, 80.7 µM (inactive); in the assay with HOP-92 it was 83.9 µM (inactive). In the assay with SK-MEL-5, the GI50 is > 100 µM (inactive).
In the case of `O=C(NNC(=O)c1nsc2ccccc12)c1ccc(Cl)cc1`, the GI50 is 14 µM (inactive) in the assay with RXF 393; 19.1 µM (inactive) with SNB-19; 21.2 µM (inactive) in the assay with UACC-257; 21.7 µM (inactive) in the assay with A549; > 100 µM (inactive) with NCI-H460; 18.2 µM in the assay with HCT-15. In addition, the GI50 is 18.3 µM (inactive) with HOP-62; 35.4 µM (inactive) with SW-620; 23.7 µM (inactive) in the assay with HL-60; 19 µM (inactive) in the assay with CCRF-CEM; > 10 µM (inactive) with OVCAR-4; 16.9 µM (inactive) with HCC 2998. Also, the GI50 with SK-MEL-28 was 16.9 µM (inactive); in the assay with NCI-H23 it was 21.9 µM (inactive); with TK-10, 26.3 µM (inactive); in the assay on UACC-62 it was > 10 µM (inactive); in the assay on IGROV-1, 34.5 µM (inactive); in the assay with HOP-92, 17.1 µM (inactive). The GI50 in the assay with SK-MEL-5 was 23.8 µM (inactive).
